Like-named read-outs stand apart in the source and are kept apart here.
Experiments:
[1] = molecular target: PARP1 (Homo sapiens, UniProt P09874); assay: PARP1 enzymatic activity ELISA; assay type: biochemical; conditions: 0.5 μmol/L; read-out: PARP1 inhibition rate
Protocol: The inhibition of PARP1 enzymatic activity by the tested compounds was gauged using an ELISA in 96-well plates. Each well was pre-coated with histone (20 μg/mL) in 100 μL of PBS buffer and incubated overnight at 4 °C. […] This was followed by the addition of 5 μL of either the compound at varying concentrations or a solvent control. The reaction was initiated by adding 20 μL of PARP (50 ng/well) and incubating at 30°C for 1 h. Post-reaction, 50 µL of streptavidin-conjugated HRP was introduced, and the assay continued at 30°C for an additional 30 min. Finally, 100 μL of a solution containing H2O2 and luminol in 0.1 M citrate buffer (pH 5.4) was added, and the luminescent signal was recorded using a Molecular Devices SpectraMax M5 microplate reader.

[2] = molecular target: T1, recombinant BRD4 (BD1 + BD2) (Homo sapiens, UniProt O60885); assay: BRD4 TR-FRET activity assay; assay type: binding; conditions: for inhibition at 1 µM: 1 μmol/L, read-out: BRD4 inhibition rate; for IC50: TR-FRET, BRD4 (BD1 + BD2);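 for all read-outs here: signal rises with BET ligand binding to the bromodomains, so inhibitors lower it, 120 min incubation at room temperature, 1% DMSO, wells lacking ligand as negative control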
T1 construct: employing a recombinant BRD4 (BD1 + BD2) and its corresponding ligand
Protocol: The BRD4 activity assay utilized TR-FRET technology, employing a recombinant BRD4 (BD1 + BD2) and its corresponding ligand. The TR-FRET signal generated in the assay is proportional to the ligand’s binding to the bromodomains. All reactions contained a final DMSO concentration of 1%. All binding reactions were conducted at room temperature. Each 20 µL reaction mixture, in assay buffer, comprised bromodomains, the BET Ligand, and the specified inhibitor amount. For the negative control, 5 µL of assay buffer replaced the BET ligand. After a 120-min incubation with the ligand, the TR-FRET signal was captured using a Tecan Infinite M1000 plate reader. IC50 values were determined through nonlinear regression with a normalized dose-response fit in Prism GraphPad software.

[3] = tested on: MDA-MB-468 cells; assay: MTT cell viability assay, MDA-MB-468; assay type: cell-based; conditions: Homo sapiens, read-out: Cytotoxicity IC50
Protocol: (§1) MDA-MB-468, MDA-MB-231, and MCF-7 cell lines were sourced from the National Collection of Authenticated Cell Culture, China. Cells were maintained in DMEM medium supplemented with 10% FBS and 1% penicillin/streptomycin, and incubated at 37°C in a humidified atmosphere containing 5% CO2.
(§2) The viability of cells was assessed using the MTT assay. Cells were seeded at a density of 3×10^3 cells per well in a 96-well plate and treated with varying concentrations (0.05, 0.2, 0.8, 3.2, 6.4, 12.8 µM) of the compounds for 72 h. Post-incubation, 100 µL of MTT solution (0.5 mg/mL) was added to each well and further incubated for 4 h. The resulting formazan crystals were dissolved in 150 µL DMSO, and the absorbance was measured at 570 nm using a microplate reader.

[4] = tested on: MCF-7 cells; assay: MTT cell viability assay, MCF-7; assay type: cell-based; conditions: Homo sapiens, read-out: Cytotoxicity IC50
Protocol: as §1, §2

[5] = tested on: MDA-MB-231 cells; assay: MTT cell viability assay, MDA-MB-231; assay type: cell-based; conditions: Homo sapiens, read-out: Cytotoxicity IC50
Protocol: as §1, §2

[6] = tested on: MCF-7 cells; assay: Wound scratch cell migration assay; assay type: cell-based; conditions: MCF-7, wound scratch, 1 μM, 48 h
Protocol: MCF-7 cells were seeded in 6-well plates at a density of 5×10^5 cells/well and incubated overnight. A scratch was made in the cell monolayer using a 10 µL pipette tip. […] Images were captured at 0, 12, 24, and 48-h intervals.

Chain of PARP1 (P09874 whole entry): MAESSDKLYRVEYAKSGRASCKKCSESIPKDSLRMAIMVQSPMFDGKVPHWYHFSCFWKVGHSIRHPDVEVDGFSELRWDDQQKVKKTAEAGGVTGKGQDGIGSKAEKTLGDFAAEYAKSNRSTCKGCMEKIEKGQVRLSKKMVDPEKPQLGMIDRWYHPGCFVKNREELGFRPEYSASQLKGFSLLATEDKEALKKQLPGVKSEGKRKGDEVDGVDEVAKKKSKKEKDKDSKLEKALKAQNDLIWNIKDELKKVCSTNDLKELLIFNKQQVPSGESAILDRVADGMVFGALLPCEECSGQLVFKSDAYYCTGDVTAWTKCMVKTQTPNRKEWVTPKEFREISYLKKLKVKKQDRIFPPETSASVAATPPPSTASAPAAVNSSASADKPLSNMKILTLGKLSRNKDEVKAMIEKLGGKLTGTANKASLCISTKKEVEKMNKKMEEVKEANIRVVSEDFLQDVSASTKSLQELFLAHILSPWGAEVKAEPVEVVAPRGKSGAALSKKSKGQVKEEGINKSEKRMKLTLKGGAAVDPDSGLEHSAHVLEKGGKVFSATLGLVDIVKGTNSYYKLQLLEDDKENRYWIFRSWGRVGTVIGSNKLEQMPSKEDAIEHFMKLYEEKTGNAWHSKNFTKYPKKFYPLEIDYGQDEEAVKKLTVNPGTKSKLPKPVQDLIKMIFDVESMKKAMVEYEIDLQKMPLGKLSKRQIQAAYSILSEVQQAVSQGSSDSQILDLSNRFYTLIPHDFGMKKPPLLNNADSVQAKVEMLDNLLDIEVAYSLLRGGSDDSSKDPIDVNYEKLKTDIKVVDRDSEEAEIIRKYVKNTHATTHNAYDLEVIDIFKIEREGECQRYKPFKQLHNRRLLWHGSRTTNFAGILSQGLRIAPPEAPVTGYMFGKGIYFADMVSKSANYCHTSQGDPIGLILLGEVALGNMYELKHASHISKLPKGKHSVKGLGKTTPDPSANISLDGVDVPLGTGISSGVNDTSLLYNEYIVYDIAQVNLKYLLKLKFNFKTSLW

Compound	inhibition at 1 µM [2]	melting point	further results
Cc1ccc(S(=O)(=O)Nc2cc(Cc3n[nH]c(=O)c4ccccc34)cc(-c3c(C)noc3C)c2)cc1 [DDT59]	75%		inhibition at 0.5 µM [1]: 8%; IC50 [2]: 0.909 ± 0.396 µM; IC50 ([3]; MDA-MB-468, MTT, 72 h): 11 µM; IC50 ([4]; MCF7, MCF-7, MTT, 72 h): > 20 µM; IC50 ([5]; MDA-MB-231, MTT, 72 h): 7.44 µM
Cc1sc2c(c1C)C(c1ccc(Cl)cc1)=N[C@@H](CC(=O)OC(C)(C)C)c1nnc(C)n1-2 [JQ1, reference compound]			inhibition of cell migration (in words) [6]: most potent inhibitory effect; IC50 ([3]; MDA-MB-468, 72 h): 3.24 µM; IC50 ([4]; MCF7, 72 h): 18.4 µM; IC50 ([5]; MDA-MB-231, 72 h): 4.83 µM
Cc1ccccc1C(=O)Nc1cc(Cc2n[nH]c(=O)c3ccccc23)cc(-c2c(C)noc2C)c1 [DDT23]	97%		IC50 ([3]; MDA-MB-468, MTT, 72 h): 10.6 µM; IC50 ([4]; MCF7, MCF-7, MTT, 72 h): 18.7 µM; IC50 ([5]; MDA-MB-231, MTT, 72 h): 8.83 µM
Cc1noc(C)c1-c1cc(Cc2n[nH]c(=O)c3ccccc23)cc(C(=O)N2CC[C@H](O)C2)c1 [DDT14]	74%	204 to 205 °C	inhibition at 0.5 µM [1]: 53%; IC50 [2]: 1.1 ± 0.45 µM; IC50 ([3]; MDA-MB-468, MTT, 72 h): 14.4 µM; IC50 ([4]; MCF7, MCF-7, MTT, 72 h): > 20 µM; IC50 ([5]; MDA-MB-231, MTT, 72 h): 8.29 µM
Cc1noc(C)c1-c1cc(Cc2n[nH]c(=O)c3ccccc23)cc(NCc2ccc(Br)cc2)c1 [DDT41]	17%	200 to 201 °C	
Cc1noc(C)c1-c1cc(Cc2n[nH]c(=O)c3ccccc23)cc(NC(=O)c2ccc(N)cc2)c1 [DDT32]	54%	188 to 189 °C	
Cc1noc(C)c1-c1cc(Cc2n[nH]c(=O)c3ccccc23)cc(NS(=O)(=O)c2ccc(Cl)cc2)c1 [DDT89]	72%	147 to 148 °C	
CCCCS(=O)(=O)Nc1cc(Cc2n[nH]c(=O)c3ccccc23)cc(-c2c(C)noc2C)c1 [DDT52]	6%	147 to 148 °C	
CNC(=O)c1cc(Cc2n[nH]c(=O)c3ccccc23)cc(-c2c(C)noc2C)c1 [DDT02]	5%	> 250 °C	
Cc1noc(C)c1-c1cc(Cc2n[nH]c(=O)c3ccccc23)cc(NCc2cccc(Br)c2)c1 [DDT40]	3%	235 to 236 °C	
Cc1noc(C)c1-c1cc(Cc2n[nH]c(=O)c3ccccc23)cc(NS(=O)(=O)c2ccccc2Cl)c1 [DDT87]	72%	174 to 175 °C	
Cc1noc(C)c1-c1cc(Cc2n[nH]c(=O)c3ccccc23)cc(NS(=O)(=O)c2ccc(F)cc2)c1 [DDT86]	7%	151 to 152 °C	
Cc1noc(C)c1-c1cc(Cc2n[nH]c(=O)c3ccccc23)cc(NS(=O)(=O)c2ccc(OCc3ccccc3)cc2)c1 [DDT74]	34%	148 to 149 °C	
Cc1noc(C)c1-c1cc(Cc2n[nH]c(=O)c3ccccc23)cc(NCc2cccc(N)c2)c1 [DDT49]	72%		inhibition at 0.5 µM [1]: 50%; IC50 [2]: 0.585 ± 0.225 µM
Cc1ccc(CNc2cc(Cc3n[nH]c(=O)c4ccccc34)cc(-c3c(C)noc3C)c2)cc1 [DDT45]	7%	215 to 216 °C	
Cc1cccc(CS(=O)(=O)Nc2cc(Cc3n[nH]c(=O)c4ccccc34)cc(-c3c(C)noc3C)c2)c1 [DDT77]	38%	154 to 155 °C	
CC(=O)Nc1ccc(CNc2cc(Cc3n[nH]c(=O)c4ccccc34)cc(-c3c(C)noc3C)c2)cc1 [DDT48]	96%		IC50 [2]: 0.46 ± 0.17 µM; IC50 ([3]; MDA-MB-468, MTT, 72 h): 9.09 µM; IC50 ([4]; MCF7, MCF-7, MTT, 72 h): > 20 µM; IC50 ([5]; MDA-MB-231, MTT, 72 h): 8.77 µM
Cc1noc(C)c1-c1cc(Cc2n[nH]c(=O)c3ccccc23)cc(C(=O)NCc2cccnc2)c1 [DDT07]	8%	> 250 °C	
CCCS(=O)(=O)Nc1cc(Cc2n[nH]c(=O)c3ccccc23)cc(-c2c(C)noc2C)c1 [DDT51]	4%	165 to 166 °C	

Compound	inhibition at 1 µM [2]	melting point	further results
Cc1noc(C)c1-c1cc(Cc2n[nH]c(=O)c3ccccc23)cc(NS(=O)(=O)C2CC2)c1 [DDT55]	32%	140 to 141 °C	
Cc1noc(C)c1-c1cc(Cc2n[nH]c(=O)c3ccccc23)cc(C(=O)N2CCC(O)CC2)c1 [DDT21]	19%	176 to 177 °C	
Cc1ccc(C(=O)Nc2cc(Cc3n[nH]c(=O)c4ccccc34)cc(-c3c(C)noc3C)c2)cc1 [DDT25]	76%		IC50 ([3]; MDA-MB-468, MTT, 72 h): 6.5 µM; IC50 ([4]; MCF7, MCF-7, MTT, 72 h): 12.5 µM; IC50 ([5]; MDA-MB-231, MTT, 72 h): 11.6 µM
Cc1noc(C)c1-c1cc(Cc2n[nH]c(=O)c3ccccc23)cc(NC(=O)c2ccccc2)c1 [DDT22]	64%	173 to 174 °C	
COc1ccc(S(=O)(=O)Nc2cc(Cc3n[nH]c(=O)c4ccccc34)cc(-c3c(C)noc3C)c2)cc1 [DDT69]	70%	155 to 156 °C	
Cc1noc(C)c1-c1cc(Cc2n[nH]c(=O)c3ccccc23)cc(NCc2ccc(Cl)cc2)c1 [DDT39]	16%	200 to 201 °C	
CCS(=O)(=O)Nc1cc(Cc2n[nH]c(=O)c3ccccc23)cc(-c2c(C)noc2C)c1 [DDT50]	69%	195 to 196 °C	
CC(=O)Nc1cccc(S(=O)(=O)Nc2cc(Cc3n[nH]c(=O)c4ccccc34)cc(-c3c(C)noc3C)c2)c1 [DDT72]	4%	192 to 193 °C	
Cc1noc(C)c1-c1cc(Cc2n[nH]c(=O)c3ccccc23)cc(NCc2ccccc2)c1 [DDT33]	3%	230 to 231 °C	
Cc1cccc(C(=O)Nc2cc(Cc3n[nH]c(=O)c4ccccc34)cc(-c3c(C)noc3C)c2)c1 [DDT24]	91%	> 250 °C	IC50 [2]: 1.88 ± 0.6 µM; IC50 ([3]; MDA-MB-468, MTT, 72 h): 9.09 µM; IC50 ([4]; MCF7, MCF-7, MTT, 72 h): 12.8 µM; IC50 ([5]; MDA-MB-231, MTT, 72 h): 8.23 µM
CC(=O)Nc1cccc(CNc2cc(Cc3n[nH]c(=O)c4ccccc34)cc(-c3c(C)noc3C)c2)c1 [DDT47]	78%		IC50 ([3]; MDA-MB-468, MTT, 72 h): 9.39 µM; IC50 ([4]; MCF7, MCF-7, MTT, 72 h): 11.7 µM; IC50 ([5]; MDA-MB-231, MTT, 72 h): 17.1 µM
Cc1noc(C)c1-c1cc(Cc2n[nH]c(=O)c3ccccc23)cc(C(=O)N2CCC[C@H](O)C2)c1 [DDT19]	11%	157 to 158 °C	
Cc1noc(C)c1-c1cc(Cc2n[nH]c(=O)c3ccccc23)cc(NCc2ccc(C(F)(F)F)cc2)c1 [DDT46]	39%	220 to 221 °C	
CCc1ccc(S(=O)(=O)Nc2cc(Cc3n[nH]c(=O)c4ccccc34)cc(-c3c(C)noc3C)c2)cc1 [DDT62]	67%	202 to 203 °C	
Cc1noc(C)c1-c1cc(Cc2n[nH]c(=O)c3ccccc23)cc(C(=O)N2CCC(=O)C2)c1 [DDT12]	38%	241 to 243 °C	
Cc1noc(C)c1-c1cc(Cc2n[nH]c(=O)c3ccccc23)cc(C(=O)N2CCOCC2)c1 [DDT16]	71%	241 to 242 °C	
CCCc1ccc(S(=O)(=O)Nc2cc(Cc3n[nH]c(=O)c4ccccc34)cc(-c3c(C)noc3C)c2)cc1 [DDT63]	51%	148 to 149 °C	
Cc1noc(C)c1-c1cc(Cc2n[nH]c(=O)c3ccccc23)cc(NC(=O)c2cccc(N)c2)c1 [DDT31]	71%	236 to 237 °C	
Cc1noc(C)c1-c1cc(Cc2n[nH]c(=O)c3ccccc23)cc(NS(=O)(=O)c2ccc(C(C)(C)C)cc2)c1 [DDT65]	44%	154 to 155 °C	

Reference: publication PMC10720709, “Design, synthesis, and evaluation of 4-(3-(3,5-dimethylisoxazol-4-yl)benzyl)phthalazin-1(2H)-one derivatives: potent BRD4 inhibitors with anti-breast cancer activity” (Frontiers in Pharmacology, 2023)
